Data reported in publication PMC11173529, “Structure–Activity Relationship Studies in a Series of Xanthine Inhibitors of SLACK Potassium Channels” (Molecules, 2024).

Target: T1, SLICK (Homo sapiens, UniProt Q6UVM3)
T1 construct: expressed in transfected cells; host or cells: HEK293
T1 sequence (Q6UVM3 1-1135): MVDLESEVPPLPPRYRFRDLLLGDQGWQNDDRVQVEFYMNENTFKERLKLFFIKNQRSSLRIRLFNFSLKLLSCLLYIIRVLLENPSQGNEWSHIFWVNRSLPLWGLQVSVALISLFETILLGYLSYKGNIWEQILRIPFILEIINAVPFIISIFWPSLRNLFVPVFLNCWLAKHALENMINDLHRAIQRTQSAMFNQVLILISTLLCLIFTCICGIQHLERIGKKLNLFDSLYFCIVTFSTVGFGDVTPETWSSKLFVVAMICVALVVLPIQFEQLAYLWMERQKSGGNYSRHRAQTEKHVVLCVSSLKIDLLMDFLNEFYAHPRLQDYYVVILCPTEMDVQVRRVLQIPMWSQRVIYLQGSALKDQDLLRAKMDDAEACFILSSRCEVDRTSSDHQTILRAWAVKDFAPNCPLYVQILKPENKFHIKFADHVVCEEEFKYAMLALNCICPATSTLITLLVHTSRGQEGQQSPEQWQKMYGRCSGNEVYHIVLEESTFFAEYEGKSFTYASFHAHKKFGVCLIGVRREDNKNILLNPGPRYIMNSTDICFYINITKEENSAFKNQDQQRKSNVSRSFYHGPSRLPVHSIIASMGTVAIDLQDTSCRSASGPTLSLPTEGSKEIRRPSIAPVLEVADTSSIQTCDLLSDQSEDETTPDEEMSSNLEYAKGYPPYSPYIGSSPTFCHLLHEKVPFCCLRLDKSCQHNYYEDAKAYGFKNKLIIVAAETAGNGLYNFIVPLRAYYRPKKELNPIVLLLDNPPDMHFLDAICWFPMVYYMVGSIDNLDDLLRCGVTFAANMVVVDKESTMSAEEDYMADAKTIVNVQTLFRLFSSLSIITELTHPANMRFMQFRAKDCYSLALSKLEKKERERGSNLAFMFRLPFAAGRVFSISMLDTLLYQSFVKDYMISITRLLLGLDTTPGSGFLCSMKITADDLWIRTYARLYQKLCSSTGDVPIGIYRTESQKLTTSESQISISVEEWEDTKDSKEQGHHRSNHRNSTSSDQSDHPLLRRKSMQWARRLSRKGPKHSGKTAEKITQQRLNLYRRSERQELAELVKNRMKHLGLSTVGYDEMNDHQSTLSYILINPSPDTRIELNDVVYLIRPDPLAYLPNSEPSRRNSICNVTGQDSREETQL
Test: Tl+-flux selectivity panel in HEK-293 cells: SLICK
Assay type: cell-based
Details: HEK293, 10 µM test compound, relative to control SKF96365, read-out: Percent Inhibition ± SEM
Experimental: (§1) With a handful of analogs that offered improved SLACK potency relative to hit compound 8, we next proceeded to investigate the ancillary pharmacology of such compounds, both with respect to other Slo family members as well as versus a spectrum of diverse ion channels (Table 5). Thus, we screened four compounds (32, 48, 70, and 71) at 10 µM in our in-house selectivity panel of Tl^+-flux assays in HEK-293 cells stably expressing the target of interest. […] Some valuable SAR was noted as well. […] Reduction of inhibition at Maxi-K α1/β4 also followed. This SAR will be important to bear in mind for continued optimization within this series. […] Of particular note is the lack of significant hERG activity in this series, as activity versus that counter-target has been an issue with other SLACK inhibitors.
(§2) Stably transfected monoclonal HEK293 cell lines expressing Slick, Maxi-K α1/β3, Maxi-K α1/β4, CaV3.2, GIRK 1/2, KV2.1, KV7.2, NaV1.7, and TASK-1 were generated as previously described. Stably transfected monoclonal HEK293 cell lines expressing hERG were generated as previously described. CHO-K1 cells expressing human Slack and disease-associated human Slack mutations, G288S and A934T, were generated by transfecting a PiggyBac TRE mammalian expression vector (VectorBuilder, Chicago, IL, USA) containing KCNT1. FuGENE 6 (Promega, Madison, WI, USA) transfection reagent and protocol, together with Opti-MEM (Thermo Fisher Scientific, Walkham, MA, USA), were utilized.
(§3) The Tl^+ flux assays were conducted as previously described with modifications optimized for individual cell lines as described below. Following removal of cell culture media, cells were loaded with Tl^+-sensitive dye loading solution containing Thallos-AM (ION Biosciences, San Marcos, TX, USA), 1.25 mM Probenecid, and 0.3% Pluronic F-127 (MilliporeSigma, Burlington, MA, USA), in assay buffer comprised of Hanks Balanced Salt Solution (HBSS) (Thermo Fisher Scientific, Waltham, MA, USA) and 20 mM HEPES (Corning, Corning, NY, USA) at room temperature for one-hour. Dye loading solution was replaced with 20 μL/well of assay buffer prior to assaying. Cell plates were then loaded onto a Panoptic kinetic imaging plate reader (WaveFront Biosciences, Franklin, TN, USA). Data were acquired at 5 Hz (excitation 482 ± 35 nm, emission 536 ± 40 nm) for 10 s, at which time 20 μL/well of test compounds in assay buffer at 2-fold above the desired final concentration was added and allowed to incubate for 120 s. Next, 10 μL/well of Tl^+ stimulus buffer (129 mM Na gluconate, 1.2 mM CaSO4, 1 MgSO4, 1 mM Na2HPO4, 4.17 mM NaHCO3, 5.56 mM glucose, 2.5 mM Tl2SO4, and 10 mM HEPES pH 7.3) was added. Imaging was concluded after an additional 120 s.

Compound	inhibition at 10 µM [%]
COc1cccc(Cn2c(=O)c3c(nc(N(C)Cc4ccccc4)n3C)n(C)c2=O)c1 [Analog 32]	28 ± 5.5
CN(Cc1cccc(F)c1)c1nc2c(c(=O)n(Cc3ccccc3)c(=O)n2C)n1C [Analog 48]	21 ± 3.1
CCCCN(Cc1ccccc1)c1nc2c(c(=O)n(Cc3ccccc3)c(=O)n2C)n1C [Analog 70]	18 ± 4.2
Cn1c(N(Cc2ccccc2)CC2CC2)nc2c1c(=O)n(Cc1ccccc1)c(=O)n2C [Analog 71]	17 ± 2.5

Target: T2, KV7.2 (Homo sapiens, UniProt O43526)
T2 construct: expressed in transfected cells; host or cells: HEK293
Test: Tl+-flux selectivity panel in HEK-293 cells: KV7.2
Assay type: cell-based
Details: HEK293, 10 µM test compound, relative to control XE991, read-out: Percent Inhibition ± SEM
Experimental: as §1, §2, §3

Compound	inhibition at 10 µM [%]
COc1cccc(Cn2c(=O)c3c(nc(N(C)Cc4ccccc4)n3C)n(C)c2=O)c1 [Analog 32]	16 ± 2.2
CN(Cc1cccc(F)c1)c1nc2c(c(=O)n(Cc3ccccc3)c(=O)n2C)n1C [Analog 48]	15 ± 2.3
CCCCN(Cc1ccccc1)c1nc2c(c(=O)n(Cc3ccccc3)c(=O)n2C)n1C [Analog 70]	19 ± 0.2
Cn1c(N(Cc2ccccc2)CC2CC2)nc2c1c(=O)n(Cc1ccccc1)c(=O)n2C [Analog 71]	14 ± 1.6

Target: T3, Maxi-K α1/β4 (Homo sapiens, UniProt Q12791)
T3 construct: expressed in transfected cells; host or cells: HEK293
Test: Tl+-flux selectivity panel in HEK-293 cells: Maxi-K α1/β4
Assay type: cell-based
Details: HEK293, 10 µM test compound, relative to control paxilline, read-out: Percent Inhibition ± SEM
Experimental: as §1, §2, §3

Compound	inhibition at 10 µM [%]
COc1cccc(Cn2c(=O)c3c(nc(N(C)Cc4ccccc4)n3C)n(C)c2=O)c1 [Analog 32]	48 ± 2
CN(Cc1cccc(F)c1)c1nc2c(c(=O)n(Cc3ccccc3)c(=O)n2C)n1C [Analog 48]	42 ± 4.6
CCCCN(Cc1ccccc1)c1nc2c(c(=O)n(Cc3ccccc3)c(=O)n2C)n1C [Analog 70]	8.5 ± 2.1
Cn1c(N(Cc2ccccc2)CC2CC2)nc2c1c(=O)n(Cc1ccccc1)c(=O)n2C [Analog 71]	12 ± 3.9

Target: T4, CaV3.2 (Homo sapiens, UniProt O95180)
T4 construct: expressed in transfected cells; host or cells: HEK293
T4 sequence (O95180 whole entry): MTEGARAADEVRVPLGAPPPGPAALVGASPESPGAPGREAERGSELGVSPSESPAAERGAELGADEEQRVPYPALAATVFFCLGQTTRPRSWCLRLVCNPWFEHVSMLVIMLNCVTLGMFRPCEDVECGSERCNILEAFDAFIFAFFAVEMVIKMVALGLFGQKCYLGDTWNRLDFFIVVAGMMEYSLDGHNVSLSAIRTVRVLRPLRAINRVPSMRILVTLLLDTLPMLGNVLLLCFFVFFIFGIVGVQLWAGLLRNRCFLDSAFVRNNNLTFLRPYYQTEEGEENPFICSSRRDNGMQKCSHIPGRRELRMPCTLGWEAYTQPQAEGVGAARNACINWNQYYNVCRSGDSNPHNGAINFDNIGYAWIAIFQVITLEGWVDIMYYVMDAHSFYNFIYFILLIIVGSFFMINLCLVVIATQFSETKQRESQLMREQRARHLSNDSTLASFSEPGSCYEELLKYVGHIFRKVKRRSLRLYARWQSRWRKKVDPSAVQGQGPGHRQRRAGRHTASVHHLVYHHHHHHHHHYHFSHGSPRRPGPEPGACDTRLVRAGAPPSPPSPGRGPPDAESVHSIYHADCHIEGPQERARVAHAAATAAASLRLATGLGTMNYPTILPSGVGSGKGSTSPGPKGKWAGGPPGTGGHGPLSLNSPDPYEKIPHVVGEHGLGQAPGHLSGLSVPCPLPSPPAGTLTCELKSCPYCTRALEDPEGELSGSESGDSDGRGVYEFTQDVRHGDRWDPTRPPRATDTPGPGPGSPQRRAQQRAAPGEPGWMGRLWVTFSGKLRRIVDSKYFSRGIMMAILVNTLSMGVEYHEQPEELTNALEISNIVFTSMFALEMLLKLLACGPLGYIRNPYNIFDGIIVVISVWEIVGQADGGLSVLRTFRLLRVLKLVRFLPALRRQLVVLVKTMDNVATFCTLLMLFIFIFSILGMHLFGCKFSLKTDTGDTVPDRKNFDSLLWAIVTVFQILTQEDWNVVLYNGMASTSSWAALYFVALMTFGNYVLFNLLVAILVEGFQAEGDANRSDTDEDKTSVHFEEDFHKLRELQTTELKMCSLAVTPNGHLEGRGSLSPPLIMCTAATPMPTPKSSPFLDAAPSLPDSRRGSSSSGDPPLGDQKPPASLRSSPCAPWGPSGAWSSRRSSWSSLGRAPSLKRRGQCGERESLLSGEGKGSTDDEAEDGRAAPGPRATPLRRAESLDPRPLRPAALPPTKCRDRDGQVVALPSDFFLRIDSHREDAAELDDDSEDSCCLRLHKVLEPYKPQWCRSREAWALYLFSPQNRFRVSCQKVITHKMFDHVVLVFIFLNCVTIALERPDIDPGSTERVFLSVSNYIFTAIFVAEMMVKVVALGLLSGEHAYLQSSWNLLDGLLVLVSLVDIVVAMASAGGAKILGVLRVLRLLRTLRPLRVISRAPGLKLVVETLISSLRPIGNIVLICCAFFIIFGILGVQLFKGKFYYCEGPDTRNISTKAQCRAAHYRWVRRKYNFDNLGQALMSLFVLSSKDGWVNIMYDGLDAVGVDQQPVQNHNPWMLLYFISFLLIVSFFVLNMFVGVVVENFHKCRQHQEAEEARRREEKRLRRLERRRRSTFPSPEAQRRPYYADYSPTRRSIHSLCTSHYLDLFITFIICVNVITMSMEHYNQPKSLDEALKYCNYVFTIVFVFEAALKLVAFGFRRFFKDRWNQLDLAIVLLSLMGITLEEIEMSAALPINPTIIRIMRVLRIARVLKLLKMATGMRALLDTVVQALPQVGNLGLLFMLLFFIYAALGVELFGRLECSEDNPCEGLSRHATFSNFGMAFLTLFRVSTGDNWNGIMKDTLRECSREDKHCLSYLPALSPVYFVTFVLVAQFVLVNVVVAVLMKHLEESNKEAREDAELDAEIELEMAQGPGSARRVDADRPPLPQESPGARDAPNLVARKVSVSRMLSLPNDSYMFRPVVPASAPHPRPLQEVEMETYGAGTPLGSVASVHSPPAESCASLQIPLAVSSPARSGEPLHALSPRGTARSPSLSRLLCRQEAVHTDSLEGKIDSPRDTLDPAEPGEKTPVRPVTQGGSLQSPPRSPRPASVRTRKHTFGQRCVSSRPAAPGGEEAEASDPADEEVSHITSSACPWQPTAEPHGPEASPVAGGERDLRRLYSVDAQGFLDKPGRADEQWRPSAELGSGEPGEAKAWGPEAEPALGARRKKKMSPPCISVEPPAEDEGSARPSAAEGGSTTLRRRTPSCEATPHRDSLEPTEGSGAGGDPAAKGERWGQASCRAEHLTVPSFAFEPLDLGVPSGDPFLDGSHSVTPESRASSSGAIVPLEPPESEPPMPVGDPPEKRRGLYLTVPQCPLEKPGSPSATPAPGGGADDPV
Test: Tl+-flux selectivity panel in HEK-293 cells: CaV3.2
Assay type: cell-based
Details: HEK293, 10 µM test compound, relative to control bepridil, read-out: Percent Inhibition ± SEM
Experimental: as §1, §2, §3

Compound	inhibition at 10 µM [%]
COc1cccc(Cn2c(=O)c3c(nc(N(C)Cc4ccccc4)n3C)n(C)c2=O)c1 [Analog 32]	18 ± 1.6
CN(Cc1cccc(F)c1)c1nc2c(c(=O)n(Cc3ccccc3)c(=O)n2C)n1C [Analog 48]	17 ± 4.2
CCCCN(Cc1ccccc1)c1nc2c(c(=O)n(Cc3ccccc3)c(=O)n2C)n1C [Analog 70]	16 ± 2.2
Cn1c(N(Cc2ccccc2)CC2CC2)nc2c1c(=O)n(Cc1ccccc1)c(=O)n2C [Analog 71]	24 ± 3.6

Target: T5, NaV1.7 (Homo sapiens, UniProt Q15858)
T5 construct: expressed in transfected cells; host or cells: HEK293
Test: Tl+-flux selectivity panel in HEK-293 cells: NaV1.7
Assay type: cell-based
Details: HEK293, 10 µM test compound, relative to control TC-N 1752, read-out: Percent Inhibition ± SEM
Experimental: as §1, §2, §3

Compound	inhibition at 10 µM [%]
COc1cccc(Cn2c(=O)c3c(nc(N(C)Cc4ccccc4)n3C)n(C)c2=O)c1 [Analog 32]	41 ± 3.3
CN(Cc1cccc(F)c1)c1nc2c(c(=O)n(Cc3ccccc3)c(=O)n2C)n1C [Analog 48]	39 ± 3.1
CCCCN(Cc1ccccc1)c1nc2c(c(=O)n(Cc3ccccc3)c(=O)n2C)n1C [Analog 70]	33 ± 1.4
Cn1c(N(Cc2ccccc2)CC2CC2)nc2c1c(=O)n(Cc1ccccc1)c(=O)n2C [Analog 71]	29 ± 3

Target: T6, hERG (Homo sapiens, UniProt Q12809)
T6 construct: expressed in transfected cells; host or cells: HEK293
T6 sequence (Q12809 whole entry): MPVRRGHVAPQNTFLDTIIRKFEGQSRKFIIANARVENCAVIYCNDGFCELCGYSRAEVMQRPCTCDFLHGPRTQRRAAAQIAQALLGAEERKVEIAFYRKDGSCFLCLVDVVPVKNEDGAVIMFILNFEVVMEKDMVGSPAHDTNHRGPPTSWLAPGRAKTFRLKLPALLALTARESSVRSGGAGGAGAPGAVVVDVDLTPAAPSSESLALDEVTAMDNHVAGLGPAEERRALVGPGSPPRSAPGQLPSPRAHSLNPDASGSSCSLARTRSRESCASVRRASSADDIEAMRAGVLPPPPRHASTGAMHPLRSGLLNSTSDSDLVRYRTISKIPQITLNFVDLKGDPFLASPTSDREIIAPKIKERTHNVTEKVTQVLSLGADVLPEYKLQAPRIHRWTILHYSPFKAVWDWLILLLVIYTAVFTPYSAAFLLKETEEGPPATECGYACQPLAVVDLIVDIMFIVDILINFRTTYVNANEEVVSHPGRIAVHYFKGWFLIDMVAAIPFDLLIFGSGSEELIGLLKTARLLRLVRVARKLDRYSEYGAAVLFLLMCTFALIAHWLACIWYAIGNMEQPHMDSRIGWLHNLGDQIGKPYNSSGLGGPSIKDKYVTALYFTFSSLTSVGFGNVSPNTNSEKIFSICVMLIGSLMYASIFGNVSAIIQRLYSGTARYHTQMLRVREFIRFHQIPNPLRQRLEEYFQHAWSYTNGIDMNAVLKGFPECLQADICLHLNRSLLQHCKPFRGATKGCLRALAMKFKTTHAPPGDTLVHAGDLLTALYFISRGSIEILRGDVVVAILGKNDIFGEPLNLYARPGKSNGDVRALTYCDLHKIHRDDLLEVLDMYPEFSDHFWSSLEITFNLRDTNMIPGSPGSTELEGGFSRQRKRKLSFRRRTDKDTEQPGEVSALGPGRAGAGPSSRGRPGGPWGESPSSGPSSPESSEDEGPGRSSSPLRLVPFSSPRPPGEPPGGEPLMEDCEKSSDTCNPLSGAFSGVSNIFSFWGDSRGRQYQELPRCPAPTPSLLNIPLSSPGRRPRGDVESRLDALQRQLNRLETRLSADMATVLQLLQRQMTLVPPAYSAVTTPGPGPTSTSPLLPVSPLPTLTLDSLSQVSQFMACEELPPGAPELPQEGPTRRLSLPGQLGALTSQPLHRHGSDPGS
Test: Tl+-flux selectivity panel in HEK-293 cells: hERG
Assay type: cell-based
Details: HEK-293 cells stably expressing hERG, 10 µM test compound, relative to control bepridil, read-out: Percent Inhibition ± SEM
Experimental: as §1, §2, §3

Compound	inhibition at 120 s, 10 µM [%]
COc1cccc(Cn2c(=O)c3c(nc(N(C)Cc4ccccc4)n3C)n(C)c2=O)c1 [Analog 32]	4.6 ± 4.5
CN(Cc1cccc(F)c1)c1nc2c(c(=O)n(Cc3ccccc3)c(=O)n2C)n1C [Analog 48]	-2.8 ± 2.4
CCCCN(Cc1ccccc1)c1nc2c(c(=O)n(Cc3ccccc3)c(=O)n2C)n1C [Analog 70]	22 ± 2
Cn1c(N(Cc2ccccc2)CC2CC2)nc2c1c(=O)n(Cc1ccccc1)c(=O)n2C [Analog 71]	23 ± 4

Target: T7, Maxi-K α1/β3 (Homo sapiens, UniProt Q12791)
T7 construct: expressed in transfected cells; host or cells: HEK293
Test: Tl+-flux selectivity panel in HEK-293 cells: Maxi-K α1/β3
Assay type: cell-based
Details: HEK293, 10 µM test compound, relative to control paxilline, read-out: Percent Inhibition ± SEM
Experimental: as §1, §2, §3

Compound	inhibition at 10 µM [%]
COc1cccc(Cn2c(=O)c3c(nc(N(C)Cc4ccccc4)n3C)n(C)c2=O)c1 [Analog 32]	79 ± 1.4
CN(Cc1cccc(F)c1)c1nc2c(c(=O)n(Cc3ccccc3)c(=O)n2C)n1C [Analog 48]	63 ± 1.2
CCCCN(Cc1ccccc1)c1nc2c(c(=O)n(Cc3ccccc3)c(=O)n2C)n1C [Analog 70]	34 ± 2.9
Cn1c(N(Cc2ccccc2)CC2CC2)nc2c1c(=O)n(Cc1ccccc1)c(=O)n2C [Analog 71]	17 ± 5.2

Target: T8, TASK-1 (Homo sapiens, UniProt O14649)
T8 construct: expressed in transfected cells; host or cells: HEK293
T8 sequence (O14649 whole entry, species assumed): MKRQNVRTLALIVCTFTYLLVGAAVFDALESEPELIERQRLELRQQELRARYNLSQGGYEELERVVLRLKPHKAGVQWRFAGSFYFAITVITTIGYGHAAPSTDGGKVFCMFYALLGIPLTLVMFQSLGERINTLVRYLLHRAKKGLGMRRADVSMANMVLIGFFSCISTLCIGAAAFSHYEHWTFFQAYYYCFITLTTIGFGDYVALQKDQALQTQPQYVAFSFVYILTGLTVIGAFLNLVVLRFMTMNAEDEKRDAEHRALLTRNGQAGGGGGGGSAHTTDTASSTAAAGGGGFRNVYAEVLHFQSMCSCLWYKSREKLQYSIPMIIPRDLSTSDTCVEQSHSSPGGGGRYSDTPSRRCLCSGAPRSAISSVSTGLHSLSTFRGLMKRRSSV
Test: Tl+-flux selectivity panel in HEK-293 cells: TASK-1
Assay type: cell-based
Details: HEK293, 10 µM test compound, relative to control bepridil, read-out: Percent Inhibition ± SEM
Experimental: as §1, §2, §3

Compound	inhibition at 10 µM [%]
COc1cccc(Cn2c(=O)c3c(nc(N(C)Cc4ccccc4)n3C)n(C)c2=O)c1 [Analog 32]	17 ± 2.3
CN(Cc1cccc(F)c1)c1nc2c(c(=O)n(Cc3ccccc3)c(=O)n2C)n1C [Analog 48]	24 ± 2.3
CCCCN(Cc1ccccc1)c1nc2c(c(=O)n(Cc3ccccc3)c(=O)n2C)n1C [Analog 70]	23 ± 2.9
Cn1c(N(Cc2ccccc2)CC2CC2)nc2c1c(=O)n(Cc1ccccc1)c(=O)n2C [Analog 71]	4.9 ± 1.5
